Legend:
antibody 2D12.5 [1] = assay: relative binding curves of 2D12.5 for Y-DOTA isomers and side chain variants; design: species or system murine; settings: for relative binding affinity for 2D12.5, isomers: coordinated metal Y^3+, FIG. 15; for relative binding affinity for 2D12.5, side chain location: Y-DOTA molecule with different side chain locations, FIG. 6
From the text: FIG. 6 is a graphical display showing the relative binding curves of an exemplary metal chelate, the Y-DOTA molecule, with different side chain locations. […] Evaluation of the crystal structure seems to indicate that shorter substitutions at this position may bind with higher affinity. Substitutions at other locations may yield reasonably high affinities as well. The (5-Amino-2-methoxy-phenyl)-carboxymethyl)-DOTA analyzed in this experiment was racemic, so it is not clear which isomer binds with higher affinity. The low pKa of the carboxymethyl proton makes it difficult to prepare a chirally pure molecule.
FIG. 15 is a graphical display showing the relative binding curves of 2D12.5 for Y-DOTA isomers and Y-DTPA. 2D12.5 binds both the (R)- and (S)- isomers of 2-(4-nitrobenzyl)-DOTA when the coordinated metal is Y^3+ (the same behavior is expected for the other rare earths). The (S)-isomer confers Λ-helicity, while the (R)-isomer confers Δ-helicity to the acetate arms. […] Y-DOTA (no-sidearm) exists is solution as a racemic mixture of the coordination isomers.

antibody 2D12.5 [2] = assay: competitive immunoassay (ELISA) of metal-DOTA complexes relative to Y-DOTA; format: binding, murine; settings: metal complexes of [S]-2-(p-nitrobenzyl)-DOTA, 37° C.
From the text: FIG. 13 is graphical display showing the relative binding of metal-DOTA complexes to antibody 2D12.5. A representative set of competitive binding curves obtained from ELISA experiments described in Example 3 below. Error bars (representing the standard error of the mean) are shown, but are generally smaller than the data points.
To determine the metal selectivity of the antibody 2D12.5, a competitive immunoassay was used to measure the binding constants of multiple metal-DOTA complexes relative to Y^3+-DOTA.
We examined the monoclonal antibody 2D12.5, initially developed to bind specifically to Y-DOTA for targeted radiotherapy (see, e.g., Goodwin et al., Cancer Res. 54: 5937-5946 (1994)), in order to determine the scope of its activity. To assess the metal selectivity of antibody 2D12.5, a competitive immunoassay to measure the binding constants of various metal-DOTA complexes relative to the original Y^3+ complex was developed (FIG. 13). Briefly, 2D12.5 was incubated at 37° C. in the presence of immobilized Y-DOTA and a soluble metal-DOTA competitor. The metal-DOTA concentration was varied from μM to pM in order to determine the relative binding affinity of 2D12.5 for each metal chelate in comparison to Y-DOTA. Binding was measured by standard methods known to those of skill in the art. […]
Target sequence in this assay (as listed by the source): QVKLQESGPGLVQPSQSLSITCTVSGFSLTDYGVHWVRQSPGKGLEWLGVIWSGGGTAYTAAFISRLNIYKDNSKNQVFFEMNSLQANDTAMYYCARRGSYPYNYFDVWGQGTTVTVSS
Target sequence in this assay (as listed by the source): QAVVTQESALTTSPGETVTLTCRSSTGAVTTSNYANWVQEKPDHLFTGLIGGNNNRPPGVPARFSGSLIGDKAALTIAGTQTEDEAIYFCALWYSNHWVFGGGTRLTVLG

Row | Compound | relative binding affinity for 2D12.5, isomers (antibody 2D12.5 [1]) | relative binding affinity for 2D12.5, side chain location (antibody 2D12.5 [1]) | binding to 2D12.5 compared with the Y^3+ complex (antibody 2D12.5 [2]) | binding to 2D12.5 compared with the Y^3+ complex (antibody 2D12.5 [2]; listed as Gd^3+)
1 | O=C(O)CN1CCN(CC(=O)O)CCN(CC(=O)O)C(Cc2ccc([N+](=O)[O-])cc2)CN(CC(=O)O)CC1 (single isomer, unassigned; isomer 2) [(R)-isomer, 2-(4-nitrobenzyl)-DOTA] | affinity decreases less than an order of magnitude | – | – | –
2 | (5-Amino-2-methoxy-phenyl)-carboxymethyl)-DOTA | – | still sufficiently strong | – | –
3 | Gd-DOTA | – | – | bind more tightly than the original Y^3+ complex | strongest binders
4 | O=C(O)CN1CCN(CC(=O)O)CCN(CC(=O)O)[C@@H](Cc2ccc([N+](=O)[O-])cc2)CN(CC(=O)O)CC1 [(S)-2-(4-nitrobenzyl)-DOTA, (S)-2-(4-nitro-benzyl)-1,4,7,10-tetraazacyclododecane-N,N′,N″,N′″-tetraacetic acid] | preferred isomer for binding | clearly stronger | – | –
